The results in this text go back to ChEMBL document CHEMBL1152132 (2008).

Test [1] concerns NCI/ADR-RES. The test can be described thus: Ratio of compound ED50 to paclitaxel ED50 for human NCI/ADR-RES cells. The test is classed as functional.
A short description of test [2]: Ratio of compound ED50 to paclitaxel ED50 for tubulin assembly.
The test system of test [3] is MCF7. The test can be described thus: Ratio of compound ED50 to paclitaxel ED50 for human MCF7 cells. It counts as functional.
The test system of the next test is Endothelial cell. Nature of the test: Binding affinity to Pgp in bovine brain microvessel endothelial cells assessed as increase in rhodamine uptake at 10 uM relative to control. It counts as cell-based. To be noted: Bos taurus.
Test [4] concerns NCI/ADR-RES. Nature of the test: Cytotoxicity against human NCI/ADR-RES cells. The settings on record: read-out: ED50 (the source's name). It counts as functional.
The subject of test [5] is MCF7. The test can be described thus: Cytotoxicity against human MCF7 cells. The test is classed as functional. The settings on record: read-out: ED50 (the source's name).

Activity calls are given as the source filed them. The rule behind the calls is not given here.

As for `CNC(=O)CCCC(=O)O[C@H]1C[C@H]2OC[C@@]2(OC(C)=O)[C@H]2[C@H](OC(=O)c3ccccc3)[C@]3(O)C[C@H](OC(=O)[C@H](O)[C@@H](NC(=O)c4ccccc4)c4ccccc4)C(C)=C([C@@H](OC(C)=O)C(=O)[C@]12C)C3(C)C`, the “Ratio ED50” value came to 3.2 in the test with NCI/ADR-RES [1], 0.8 in test [2] and 3.7 with MCF7 [3]. The outcome with Endothelial cell was Active.

Turning to `CC(=O)O[C@@]12CO[C@@H]1C[C@H](O)[C@@]1(C)C(=O)[C@H](OC(=O)CCC(=O)O)C3=C(C)[C@@H](OC(=O)[C@H](O)[C@@H](NC(=O)c4ccccc4)c4ccccc4)C[C@@](O)([C@@H](OC(=O)c4ccccc4)[C@H]21)C3(C)C`, the Ratio ED50 in test [2] turned out to be 1.7.

With `CC(=O)O[C@H]1C(=O)[C@]2(C)[C@@H](OC(=O)CCCC(=O)N(C)C)C[C@H]3OC[C@@]3(OC(C)=O)[C@H]2[C@H](OC(=O)c2ccccc2)[C@]2(O)C[C@H](OC(=O)[C@H](O)[C@@H](NC(=O)c3ccccc3)c3ccccc3)C(C)=C1C2(C)C`, in test [2], the Ratio ED50 was 0.7. Also, the result with Endothelial cell was Active.

Take `CNC(=O)CCC(=O)O[C@H]1C(=O)[C@@]2(C)[C@H]([C@H](OC(=O)c3ccccc3)[C@]3(O)C[C@H](OC(=O)[C@H](O)[C@@H](NC(=O)c4ccccc4)c4ccccc4)C(C)=C1C3(C)C)[C@]1(OC(C)=O)CO[C@@H]1C[C@@H]2O`: the results for the “Ratio ED50” value (in the test on NCI/ADR-RES [1]; in test [2]; in the test on MCF7 [3]) were 6, 0.8 and 7.9, respectively. For the same compound, the outcome in the test with Endothelial cell was Active.

As for `CNC(=O)CCC(=O)O[C@H]1C[C@H]2OC[C@@]2(OC(C)=O)[C@H]2[C@H](OC(=O)c3ccccc3)[C@]3(O)C[C@H](OC(=O)[C@H](O)[C@@H](NC(=O)c4ccccc4)c4ccccc4)C(C)=C([C@@H](OC(C)=O)C(=O)[C@]12C)C3(C)C`, the Ratio ED50 in test [2] was determined as 0.8. In the test on Endothelial cell, the outcome was Active.

On to `CC(=O)O[C@@]12CO[C@@H]1C[C@H](O)[C@@]1(C)C(=O)[C@H](OC(=O)CCC(=O)N(C)C)C3=C(C)[C@@H](OC(=O)[C@H](O)[C@@H](NC(=O)c4ccccc4)c4ccccc4)C[C@@](O)([C@@H](OC(=O)c4ccccc4)[C@H]21)C3(C)C`, for which the “Ratio ED50” value with NCI/ADR-RES [1] turned out to be 2.7; in test [2], 1.6; in the test on MCF7 [3] it was 2.1. The outcome with Endothelial cell was Active.

With `CC(=O)O[C@H]1C(=O)[C@]2(C)[C@@H](OC(=O)CCCC(N)=O)C[C@H]3OC[C@@]3(OC(C)=O)[C@H]2[C@H](OC(=O)c2ccccc2)[C@]2(O)C[C@H](OC(=O)[C@H](O)[C@@H](NC(=O)c3ccccc3)c3ccccc3)C(C)=C1C2(C)C`, in test [2], the Ratio ED50 came to 0.6. Further, the result with Endothelial cell was Active.

As for `CC(=O)O[C@@]12CO[C@@H]1C[C@H](O)[C@@]1(C)C(=O)[C@H](OC(=O)CCCC(=O)N(C)C)C3=C(C)[C@@H](OC(=O)[C@H](O)[C@@H](NC(=O)c4ccccc4)c4ccccc4)C[C@@](O)([C@@H](OC(=O)c4ccccc4)[C@H]21)C3(C)C`, the Ratio ED50 in test [2] worked out at 2.2. Also, in the test with Endothelial cell, the result was Active.

With `CNC(=O)CCCC(=O)O[C@H]1C(=O)[C@@]2(C)[C@H]([C@H](OC(=O)c3ccccc3)[C@]3(O)C[C@H](OC(=O)[C@H](O)[C@@H](NC(=O)c4ccccc4)c4ccccc4)C(C)=C1C3(C)C)[C@]1(OC(C)=O)CO[C@@H]1C[C@@H]2O`, the Ratio ED50 in test [2] came out at 1.8. For the same compound, the result with Endothelial cell was Active.

As to `CC(=O)O[C@@]12CO[C@@H]1C[C@H](O)[C@@]1(C)C(=O)[C@H](OC(=O)CCC(N)=O)C3=C(C)[C@@H](OC(=O)[C@H](O)[C@@H](NC(=O)c4ccccc4)c4ccccc4)C[C@@](O)([C@@H](OC(=O)c4ccccc4)[C@H]21)C3(C)C`, the “Ratio ED50” value amounted to 6 in the test on NCI/ADR-RES [1], 0.4 in test [2] and 10 with MCF7 [3]. Further, the result with Endothelial cell was Active.

`CC(=O)O[C@@]12CO[C@@H]1C[C@H](O)[C@@]1(C)C(=O)[C@H](OC(=O)CCCC(N)=O)C3=C(C)[C@@H](OC(=O)[C@H](O)[C@@H](NC(=O)c4ccccc4)c4ccccc4)C[C@@](O)([C@@H](OC(=O)c4ccccc4)[C@H]21)C3(C)C`: the Ratio ED50 in test [2] was determined as 1.8. Also, in the test with Endothelial cell, the outcome was Active.

Turning to `CC(=O)O[C@H]1C(=O)[C@]2(C)[C@@H](OC(=O)CCC(N)=O)C[C@H]3OC[C@@]3(OC(C)=O)[C@H]2[C@H](OC(=O)c2ccccc2)[C@]2(O)C[C@H](OC(=O)[C@H](O)[C@@H](NC(=O)c3ccccc3)c3ccccc3)C(C)=C1C2(C)C`, the Ratio ED50 in test [2] is 0.6. For the same compound, the result in the test on Endothelial cell was Active.

With `COC(=O)CCC(=O)O[C@H]1C(=O)[C@@]2(C)[C@H]([C@H](OC(=O)c3ccccc3)[C@]3(O)C[C@H](OC(=O)[C@H](O)[C@@H](NC(=O)c4ccccc4)c4ccccc4)C(C)=C1C3(C)C)[C@]1(OC(C)=O)CO[C@@H]1C[C@@H]2O`, the “Ratio ED50” value with NCI/ADR-RES [1] amounted to 0.4; in test [2], 1; with MCF7 [3], 2.5.

On to `CC(=O)O[C@H]1C(=O)[C@]2(C)[C@@H](OC(=O)CCCC(=O)O)C[C@H]3OC[C@@]3(OC(C)=O)[C@H]2[C@H](OC(=O)c2ccccc2)[C@]2(O)C[C@H](OC(=O)[C@H](O)[C@@H](NC(=O)c3ccccc3)c3ccccc3)C(C)=C1C2(C)C`, for which the Ratio ED50 in test [2] was found to be 1.

With `COC(=O)CCC(=O)O[C@H]1C[C@H]2OC[C@@]2(OC(C)=O)[C@H]2[C@H](OC(=O)c3ccccc3)[C@]3(O)C[C@H](OC(=O)[C@H](O)[C@@H](NC(=O)c4ccccc4)c4ccccc4)C(C)=C([C@@H](OC(C)=O)C(=O)[C@]12C)C3(C)C`, in test [2], the Ratio ED50 is 1.2. Moreover, in the test with Endothelial cell, the outcome was Active.

In the case of `CC(=O)O[C@H]1C(=O)[C@]2(C)[C@@H](OC(=O)CCC(=O)O)C[C@H]3OC[C@@]3(OC(C)=O)[C@H]2[C@H](OC(=O)c2ccccc2)[C@]2(O)C[C@H](OC(=O)[C@H](O)[C@@H](NC(=O)c3ccccc3)c3ccccc3)C(C)=C1C2(C)C`, the Ratio ED50 in test [2] came out at 3.8.

Turning to `CC(=O)O[C@H]1C(=O)[C@@]2(C)[C@H]([C@H](OC(=O)c3ccccc3)[C@]3(O)C[C@H](OC(=O)[C@H](O)[C@@H](NC(=O)c4ccccc4)c4ccccc4)C(C)=C1C3(C)C)[C@]1(OC(C)=O)CO[C@@H]1C[C@@H]2O` [PACLITAXEL], the EC50 in the test with NCI/ADR-RES [4] was 1500 nM; in the test with MCF7 [5], 3.2 nM.

`CC(=O)O[C@@]12CO[C@@H]1C[C@H](O)[C@@]1(C)C(=O)[C@H](OC(=O)CCCC(=O)O)C3=C(C)[C@@H](OC(=O)[C@H](O)[C@@H](NC(=O)c4ccccc4)c4ccccc4)C[C@@](O)([C@@H](OC(=O)c4ccccc4)[C@H]21)C3(C)C`: the Ratio ED50 in test [2] was 1.8.

In the case of `CC(=O)O[C@H]1C(=O)[C@]2(C)[C@@H](OC(=O)CCC(=O)N(C)C)C[C@H]3OC[C@@]3(OC(C)=O)[C@H]2[C@H](OC(=O)c2ccccc2)[C@]2(O)C[C@H](OC(=O)[C@H](O)[C@@H](NC(=O)c3ccccc3)c3ccccc3)C(C)=C1C2(C)C`, the Ratio ED50 in test [2] was 1.1. In the test with Endothelial cell, the result was Active.
